Reference: the supplement of paper PMC7017272
± gives the standard deviation of the averaged measurements.

What was measured:
Settings in all cases: treatment time: 3 days
UT-SCC-24A [1] = experiment: relative IC50 (midpoint of the fitted curve; maximal inhibition may be below 50%); higher = less potent
Method: (§1)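 HNSCC cell lines (500 cells/well, 384-well) were cultured on plastic, on top of (2D) or embedded (3D) in Matrigel or human leiomyoma matrix Myogel (500 ug/mL; Myogel 3D mixed with rat collagen I). Cells were treated for 3 days with 5 ten-fold concentrations of each drug, and viability was read by CellTiter-Glo. Viability was normalised to DMSO (0% inhibition) and 100 uM benzethonium chloride (100% inhibition) controls and fitted with the FIMM DSRT pipeline to give IC50 (nM), maximal % inhibition and the drug sensitivity score (DSS). Suffixes _1/_2/_3 on drug names are replicates.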

UT-SCC-42A = experiment: relative IC50 (midpoint of the fitted curve; maximal inhibition may be below 50%); higher = less potent
Method in brief: (§2)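 Viability was read with CellTiter-Glo 2.0 luminescence and scaled against vehicle (0.1% DMSO) and cell-killing control wells. The assay used HPV-negative HNSCC cell lines at 500 cells/well in 384-well plates, grown on plastic, on Matrigel or Myogel coatings (500 µg/mL), or embedded in Matrigel or Myogel plus rat collagen I, and treated for 3 days at five 10-fold concentrations. IC50, maximal inhibition and drug sensitivity score were derived from percent-inhibition dose–response curves fitted in the FIMM pipeline.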

UT-SCC-14 [2] = experiment: as above
Method in brief: as §2

UT-SCC-40 = experiment: as above
Method in brief: as §2

UT-SCC-106A = experiment: as above
Method in brief: as §2

UT-SCC-81 = experiment: as above
Method in brief: as §2

UT-SCC-73 = experiment: as above
Method in brief: as §2

UT-SCC-28 = experiment: as above
Method in brief: as §2

UT-SCC-42B = experiment: as above
Method in brief: as §2

UT-SCC-44 = experiment: as above
Method in brief: as §2

UT-SCC-8 = experiment: as above
Method in brief: as §2

UT-SCC-24B [3] = experiment: as above
Method in brief: as §2

UT-SCC-14 [4] = experiment: drug sensitivity score (DSS); higher = more sensitive; extreme values may be limits of the assay
Method in brief: as §2

UT-SCC-24B [5] = experiment: as above
Method in brief: as §2

UT-SCC-24A [6] = experiment: drug sensitivity score (DSS); higher = more sensitive
Method: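 HNSCC cell lines (500 cells/well, 384-well) were cultured on plastic, on top of (2D) or embedded (3D) in Matrigel or human leiomyoma matrix Myogel (500 ug/mL; Myogel 3D mixed with rat collagen I). Cells were treated for 3 days with 5 ten-fold concentrations of each drug, and viability was read by CellTiter-Glo. Suffixes _1/_2/_3 on drug names are replicates.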

UT-SCC-24A [7] = experiment: maximal % inhibition of viability relative to DMSO; higher = stronger effect
Method: as §1

[8] = culture condition: embedded in Matrigel
[9] = culture condition: embedded in Myogel + collagen I
[10] = culture condition: on top of Matrigel
[11] = culture condition: on top of Myogel
[12] = culture condition: plastic 2D (no matrix)

relative IC50 (UT-SCC-24A [1]; [8]): 0.00415 µM | relative IC50 (UT-SCC-24A [1]; [9]): 0.077 µM | relative IC50 (UT-SCC-24A [1]; [10]): 0.00619 µM | relative IC50 (UT-SCC-24A [1]; [11]): 0.105 µM | relative IC50 (UT-SCC-24A [1]; [12]): 0.0102 µM | relative IC50 (UT-SCC-42A; [8]): 0.0142 µM | relative IC50 (UT-SCC-42A; [9]): 0.183 µM | relative IC50 (UT-SCC-42A; [10]): 0.0176 µM | relative IC50 (UT-SCC-42A; [12]): 0.0408 µM | relative IC50 (UT-SCC-14 [2]; [10]): 0.25 µM | relative IC50 (UT-SCC-14 [2]; [11]): 0.416 µM | relative IC50 (UT-SCC-14 [2]; [12]): 0.637 µM | relative IC50 (UT-SCC-40; [8]): 0.0129 µM | relative IC50 (UT-SCC-40; [9]): 0.0454 µM | relative IC50 (UT-SCC-40; [10]): 0.0301 µM | relative IC50 (UT-SCC-40; [11]): 0.0894 µM | relative IC50 (UT-SCC-40; [12]): 0.089 µM | relative IC50 (UT-SCC-106A; [8]): 0.0117 µM | relative IC50 (UT-SCC-106A; [9]): 0.491 µM | relative IC50 (UT-SCC-106A; [10]): 0.0115 µM | relative IC50 (UT-SCC-106A; [11]): 0.768 µM | relative IC50 (UT-SCC-106A; [12]): 0.019 µM | relative IC50 (UT-SCC-81; [8]): 0.0145 µM | relative IC50 (UT-SCC-81; [10]): 0.0435 µM | relative IC50 (UT-SCC-81; [11]): 0.532 µM | relative IC50 (UT-SCC-81; [12]): 0.223 µM | relative IC50 (UT-SCC-73; [8]): 0.0204 µM | relative IC50 (UT-SCC-73; [9]): 0.0959 µM | relative IC50 (UT-SCC-73; [10]): 0.021 µM | relative IC50 (UT-SCC-73; [11]): 0.0646 µM | relative IC50 (UT-SCC-73; [12]): 0.0376 µM | relative IC50 (UT-SCC-28; [8]): 0.0768 µM | relative IC50 (UT-SCC-28; [10]): 0.0988 µM | relative IC50 (UT-SCC-42B; [8]): 0.0124 µM | relative IC50 (UT-SCC-42B; [10]): 0.0426 µM | relative IC50 (UT-SCC-42B; [11]): 0.221 µM | relative IC50 (UT-SCC-42B; [12]): 0.123 µM | relative IC50 (UT-SCC-44; [10]): 0.0352 µM | relative IC50 (UT-SCC-44; [11]): 0.148 µM | relative IC50 (UT-SCC-8; [8]): 0.122 µM | relative IC50 (UT-SCC-8; [9]): 0.773 µM | relative IC50 (UT-SCC-8; [10]): 0.159 µM | relative IC50 (UT-SCC-8; [11]): 0.163 µM | relative IC50 (UT-SCC-8; [12]): 0.228 µM | relative IC50 (UT-SCC-24B [3]; [8]): 0.15 µM | relative IC50 (UT-SCC-24B [3]; [9]): 0.212 µM | relative IC50 (UT-SCC-24B [3]; [10]): 0.184 µM | relative IC50 (UT-SCC-24B [3]; [11]): 0.653 µM | relative IC50 (UT-SCC-24B [3]; [12]): 0.102 µM
Compound: O=C(NC[C@H](O)CO)c1ccncc1Nc1ccc(I)cc1F [Pimasertib]
drug sensitivity score (UT-SCC-14 [4]; [8]): 13.9 ± 3.4 DSS | drug sensitivity score (UT-SCC-14 [4]; [9]): 12.2 ± 5.1 DSS | drug sensitivity score (UT-SCC-14 [4]; [10]): 10.6 ± 2.3 DSS | drug sensitivity score (UT-SCC-14 [4]; [11]): 8.27 ± 2.3 DSS | drug sensitivity score (UT-SCC-14 [4]; [12]): 8.03 ± 3.4 DSS | drug sensitivity score (UT-SCC-24B [5]; [8]): 15.6 ± 1.2 DSS | drug sensitivity score (UT-SCC-24B [5]; [9]): 14.4 ± 2 DSS | drug sensitivity score (UT-SCC-24B [5]; [10]): 15 ± 0.9 DSS | drug sensitivity score (UT-SCC-24B [5]; [11]): 9.1 ± 0.61 DSS | drug sensitivity score (UT-SCC-24B [5]; [12]): 20.3 ± 1.8 DSS | drug sensitivity score (UT-SCC-24A [6]; [8]): 34.8 ± 1.2 DSS | drug sensitivity score (UT-SCC-24A [6]; [9]): 18.5 ± 1.2 DSS | drug sensitivity score (UT-SCC-24A [6]; [10]): 31.6 ± 0.84 DSS | drug sensitivity score (UT-SCC-24A [6]; [11]): 15 ± 1.6 DSS | drug sensitivity score (UT-SCC-24A [6]; [12]): 28.3 ± 1.6 DSS | maximal % inhibition of viability (UT-SCC-24A [7]; [8]): 85 ± 0.94% | maximal % inhibition of viability (UT-SCC-24A [7]; [9]): 77.9 ± 2.9% | maximal % inhibition of viability (UT-SCC-24A [7]; [10]): 81.4 ± 1.8% | maximal % inhibition of viability (UT-SCC-24A [7]; [11]): 68 ± 3.4% | maximal % inhibition of viability (UT-SCC-24A [7]; [12]): 79.3 ± 2.7%
